Assay results from patent US20260035459A1, “HUMANIZED CHIMERIC ANTIGEN RECEPTORS TARGETING THE B-CELL RECEPTOR OF CHRONIC LYMPHOCYTIC LEUKEMIA AND USES THEREOF” (AVA LIFESCIENCE GMBH, priority 2022, published 2026).

Tests used:
OCI-Ly1 wt cells = format: cell-based; conditions: human, 24 h
Procedure: (§1) The graph depicts a titration of ibrutinib to determine toxicity towards OCI-Ly1 cell models upon administration of serial dilutions of ibrutinib (11 steps, ranges 0.01 to 20 μM) to OCI-Ly1 wt or OCI-Ly1_R110 cells for 24 hours. Cell growth in percent was plotted as total numbers of ibrutinib-treated cells relative to the total number of untreated cells. […] This dose was thus chosen for further testing of CAR T efficacy.
(§2) Coadministration of BTK-inhibitors like ibrutinib-a BTK/ITK inhibitor known to restore T cell functionality—to CAR T cell can have additive anti-tumor effects. To test this in the R110 CAR T setting, ibrutinib toxicity for OCI-Ly1 target cells was assessed first. For this, 2×10^4 OCI-Ly1 wt and OCI-Ly1_R110 cells were seeded in 200 μl culture media supplemented with serial dilutions of ibrutinib (PCI-32765, Selleck Chemicals, Cat. S2680) ranging from 0.01 to 20 μM. Cells grown under the same conditions without ibrutinib served as control. After 24h incubation, viable (trypan blue exclusion) cells were counted using the Vi-CELL XR system (Beckman Coulter). Cell growth in percent was then plotted as total numbers of ibrutinib-treated cells relative to the total number of untreated cells (FIG. 10). […] This dose was thus chosen for further testing of CAR T efficacy.

OCI-Ly1_R110 cells = format: cell-based; conditions: human, 24 h
Procedure: as §1, §2

## C=CC(=O)N1CCC[C@@H](n2nc(-c3ccc(Oc4ccccc4)cc3)c3c(N)ncnc32)C1 [ibrutinib]
OCI-Ly1 wt cells
  highest dose that does not result in a viability drop of target cells: 0.08 UM
OCI-Ly1_R110 cells
  highest dose that does not result in a viability drop of target cells: 0.08 UM
